Experimental data: ChEMBL document CHEMBL1201862, “PubChem BioAssay data set” (2004)
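96-well plates; 48 h exposure; 5 concentrations. Endpoints by linear interpolation between flanking doses. Not reached: highest tested concentration assigned. Abbreviation: GI50, concentration required for 50% inhibition of growth.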 The source made the active and inactive calls. Rule as the data show it: active = GI50 up to about 1.1 µM and inactive = higher.

Experiments:
Assay in all cases: DTP human tumour cell line panel, 48 h
XF498 = tested on: XF498
NCI-H522 = tested on: NCI-H522
SF-539 = tested on: SF-539
HT-29 = tested on: HT-29
SN12C = tested on: SN12C
A549 = tested on: A549
HCT-15 = tested on: HCT-15
K562 = tested on: K562
HCT-116 = tested on: HCT-116
LOX IMVI = tested on: LOX IMVI
NCI-H226 = tested on: NCI-H226
HOP-92 = tested on: HOP-92
UO-31 = tested on: UO-31
HCC 2998 = tested on: HCC 2998
NCI-H23 = tested on: NCI-H23
SK-MEL-5 = tested on: SK-MEL-5
NCI-H460 = tested on: NCI-H460

| Compound | GI50 (XF498) | GI50 (NCI-H522) | GI50 (SF-539) | GI50 (HT-29) | GI50 (SN12C) | GI50 (A549) | GI50 (HCT-15) [µM] | GI50 (K562) | GI50 (HCT-116) | GI50 (LOX IMVI) | GI50 (NCI-H226) | GI50 (HOP-92) | GI50 (UO-31) | GI50 (HCC 2998) | GI50 (NCI-H23) | GI50 (SK-MEL-5) | GI50 (NCI-H460) |
| --- | --- | --- | --- | --- | --- | --- | --- | --- | --- | --- | --- | --- | --- | --- | --- | --- | --- |
| CNC(=O)OCc1c(CO)nc(SC)n1C | > 100 µM (inactive) | > 100 µM (inactive) | > 100 µM (inactive) | > 100 µM (inactive) | > 100 µM (inactive) | > 100 µM (inactive) | > 100 | > 100 µM (inactive) | > 100 µM (inactive) | > 100 µM (inactive) | > 100 µM (inactive) | > 100 µM (inactive) | > 100 µM (inactive) | > 100 µM (inactive) | > 100 µM (inactive) | > 100 µM (inactive) | > 100 µM (inactive) |
| CC1=C(CO)C(=O)OC(C(C)C2CCC3C4CC5OC56C(O)C(N5CC5)=CC(=O)C6(C)C4CCC23C)C1 (stereo not given) | 5.3 µM (inactive) | 1.67 µM (inactive) | 3.66 µM (inactive) | 3.94 µM (inactive) | 6.58 µM (inactive) | 10.4 µM (inactive) | 3.46 | 3.59 µM (inactive) | 3.02 µM (inactive) | 14 µM (inactive) | 14.2 µM (inactive) | 5.33 µM (inactive) | 12.9 µM (inactive) | 2.93 µM (inactive) | 2.35 µM (inactive) | 12.8 µM (inactive) | 9.44 µM (inactive) |
| CN(C)c1ccc(/C=c2\sc3nnc(Cc4ccccc4)n3c2=O)cc1 | > 10 µM (inactive) | > 10 µM (inactive) | > 10 µM (inactive) | 62.5 µM (inactive) | > 10 µM (inactive) | 37 µM (inactive) | 20.2 | > 10 µM (inactive) | 17.1 µM (inactive) | > 10 µM (inactive) | > 10 µM (inactive) | > 100 µM (inactive) | > 100 µM (inactive) | > 100 µM (inactive) | > 10 µM (inactive) | > 10 µM (inactive) | > 10 µM (inactive) |
| CC[C@H](C)[C@H]1NC(=O)C(C(C)=O)=C1O | > 100 µM (inactive) | 88.5 µM (inactive) | > 100 µM (inactive) | > 100 µM (inactive) | 83.6 µM (inactive) | > 100 µM (inactive) | 79.8 | > 100 µM (inactive) | 51.9 µM (inactive) | 62.4 µM (inactive) | > 100 µM (inactive) | > 100 µM (inactive) | > 100 µM (inactive) | 54 µM (inactive) | > 100 µM (inactive) | 98.9 µM (inactive) | 80 µM (inactive) |
| CC(C)=CC1C(C(=O)O)C1(C)C (stereo not given) [CHRYSANTHEMIC ACID] | 50.6 µM (inactive) | > 750 µM (inactive) | > 750 µM (inactive) | > 750 µM (inactive) | > 724 µM (inactive) | > 750 µM (inactive) | > 750 | > 750 µM (inactive) | > 750 µM (inactive) | > 750 µM (inactive) | 75 µM (inactive) | 520 µM (inactive) | > 750 µM (inactive) | > 750 µM (inactive) | > 750 µM (inactive) | > 750 µM (inactive) | > 750 µM (inactive) |
